In ChEMBL document CHEMBL1201862, “PubChem BioAssay data set” (2004):
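The compound was tested at five concentrations on cells cultured in 96-well plates, with a 48-hour exposure period. GI50: concentration for 50% inhibition of growth.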 The source made the active and inactive calls. Cut-off read from the data, not from the text of the source: active = GI50 up to about 1.1 µM and inactive = higher.

What was measured:
Experiment in all cases: inhibition of tumour cell growth, NCI panel, 48 h
[1] = test system: Malme-3M
[2] = test system: M14
[3] = test system: 786-0
[4] = test system: KM-20L2
[5] = test system: MOLT-4
[6] = test system: HOP-92
[7] = test system: DLD-1
[8] = test system: SF-539
[9] = test system: OVCAR-5
[10] = test system: RXF 393
[11] = test system: SW-620
[12] = test system: SF-295
[13] = test system: SR
[14] = test system: OVCAR-4
[15] = test system: RPMI-8226
[16] = test system: A498
[17] = test system: SK-MEL-28
[18] = test system: SNB-75
[19] = test system: SK-MEL-5
[20] = test system: HCC 2998
[21] = test system: M19-MEL
[22] = test system: SNB-78
[23] = test system: KM12
[24] = test system: UO-31
[25] = test system: IGROV-1
[26] = test system: HCT-116
[27] = test system: OVCAR-3
[28] = test system: DMS-273
[29] = test system: COLO 205
[30] = test system: A549
[31] = test system: LXFL 529
[32] = test system: SF-268
[33] = test system: UACC-62
[34] = test system: DMS-114
[35] = test system: SK-MEL-2
[36] = test system: EKVX
[37] = test system: NCI-H460
[38] = test system: LOX IMVI
[39] = test system: NCI-H23
[40] = test system: K562
[41] = test system: XF498
[42] = test system: HT-29
[43] = test system: OVCAR-8
[44] = test system: U-251
[45] = test system: HL-60
[46] = test system: ACHN
[47] = test system: CCRF-CEM
[48] = test system: TK-10
[49] = test system: SK-OV-3
[50] = test system: HCT-15
[51] = test system: SN12C
[52] = test system: CAKI-1
[53] = test system: NCI-H226
[54] = test system: HOP-62
[55] = test system: SNB-19
[56] = test system: NCI-H522
[57] = test system: HOP-18
[58] = test system: UACC-257

Measured: GI50

CC(=O)OC1CC2C(C)(C)OC(=O)CC(OC(C)=O)[C@]2(C)C2CCC3(C)C(=CCC3c3ccoc3)[C@]12C (some centres undefined)
26.2 µM: [50]
inactive: [1] 25.6 µM | [2] 18.9 µM | [3] 19.4 µM | [4] 28.1 µM | [5] 5.9 µM | [6] 6.32 µM | [7] 13 µM | [8] 26.8 µM | [9] 32.8 µM | [10] 24 µM | [11] 32.1 µM | [12] 18 µM | [13] 8.15 µM | [14] 46.5 µM | [15] 18.2 µM | [16] 17.6 µM | [17] 94.6 µM | [18] 18.3 µM | [19] 21.4 µM | [20] 18.4 µM | [21] 17.5 µM | [22] 48.9 µM | [23] 30.6 µM | [24] 23.9 µM | [25] 24.5 µM | [26] 14.4 µM | [27] 16.2 µM | [28] 13.7 µM | [29] 14.1 µM | [30] 19.4 µM | [31] 13.9 µM | [32] 21.1 µM | [33] 22.2 µM | [34] 19.6 µM | [35] 10.9 µM | [36] 15.5 µM | [37] 21.4 µM | [38] 28.7 µM | [39] 27.2 µM | [40] 14 µM | [41] 13.8 µM | [42] 15.7 µM | [43] 18.1 µM | [44] 37.6 µM | [45] 16.1 µM | [46] 25.1 µM | [47] 18.2 µM | [48] 49 µM | [49] 21.7 µM | [51] 32.6 µM | [52] 31.3 µM | [53] 14.9 µM | [54] 24 µM | [55] 14.3 µM | [56] 15.6 µM

CC(=O)O[C@H]1C(=O)[C@@]2(C)C(C(OC(=O)c3ccccc3)[C@]3(O)CC(OC(=O)C(O)C(NC(=O)c4ccc(C(F)(F)F)cc4)c4ccccc4)C(C)=C1C3(C)C)[C@]1(OC(C)=O)CO[C@@H]1C[C@@H]2O (some centres undefined)
active: [1] 0.109 µM | [2] 0.0682 µM | [3] 0.64 µM | [4] 0.0767 µM | [5] 0.0324 µM | [7] 0.231 µM | [8] 0.166 µM | [9] 0.158 µM | [11] 0.0552 µM | [12] 0.239 µM | [13] 0.0264 µM | [15] 0.0628 µM | [17] 0.128 µM | [18] 0.00375 µM | [19] 0.0942 µM | [20] 0.101 µM | [21] 0.0824 µM | [22] 0.453 µM | [23] 0.0611 µM | [25] 0.183 µM | [26] 0.05 µM | [27] 0.0757 µM | [28] 0.0431 µM | [57] 0.836 µM | [29] 0.0706 µM | [30] 0.218 µM | [58] 0.236 µM | [32] 0.157 µM | [33] 0.0723 µM | [34] 0.0226 µM | [35] 0.0914 µM | [37] 0.103 µM | [38] 0.156 µM | [39] 0.136 µM | [40] 0.108 µM | [41] 0.681 µM | [42] 0.0565 µM | [43] 0.161 µM | [44] 0.156 µM | [45] 0.0951 µM | [47] 0.175 µM | [49] 0.129 µM | [51] 0.159 µM | [52] 0.076 µM | [53] 0.0977 µM | [54] 0.0989 µM | [55] 0.861 µM | [56] 0.0755 µM
inactive: [6] 2.13 µM | [14] 8.77 µM | [16] 1.19 µM | [46] 1.9 µM | [48] 1.95 µM
4.97 µM: [50]

CC(=O)C(/N=N\C1CCC(S(=O)(=O)NB2N=CS2)CC1)C(=O)Nc1ccccc1C (centres undefined)
inactive: [1] 16 µM | [2] 19.2 µM | [4] 15.9 µM | [5] 18.3 µM | [6] 19.2 µM | [7] 16.9 µM | [8] 17.7 µM | [9] 19.8 µM | [10] 21 µM | [11] 16.3 µM | [12] 17 µM | [13] 43.7 µM | [14] 12.8 µM | [15] 31.1 µM | [16] 16.7 µM | [17] 15.4 µM | [18] 17.5 µM | [19] 12.6 µM | [20] 17.5 µM | [21] 17.6 µM | [22] 23.6 µM | [23] 16 µM | [24] 18.8 µM | [25] 17.4 µM | [26] 13.5 µM | [27] 13.8 µM | [28] 20.6 µM | [57] 29.3 µM | [29] 20.9 µM | [30] 13 µM | [58] 17.9 µM | [31] 14.2 µM | [32] 14.7 µM | [33] 17.9 µM | [34] 11.9 µM | [35] 17.9 µM | [36] 19.3 µM | [37] 15.8 µM | [39] 13.6 µM | [40] > 100 µM | [41] 16.9 µM | [42] 16 µM | [43] 10.5 µM | [44] 13.7 µM | [45] > 100 µM | [46] 12.2 µM | [47] 19 µM | [48] 25.6 µM | [49] 27 µM | [51] 17.4 µM | [52] 23.1 µM | [53] 14.9 µM | [54] 20 µM | [55] 16.5 µM | [56] 15.3 µM
10.5 µM: [50]

C1=CC2CCC1CN2CCC1CNc2ccccc21 (centres undefined)
inactive: [1] > 100 µM | [2] > 100 µM | [3] > 100 µM | [4] > 100 µM | [5] > 100 µM | [6] > 100 µM | [7] > 100 µM | [8] > 100 µM | [9] > 100 µM | [10] 75.3 µM | [11] > 100 µM | [12] > 100 µM | [13] > 100 µM | [15] > 100 µM | [16] > 100 µM | [17] > 100 µM | [18] > 100 µM | [20] > 100 µM | [21] > 100 µM | [22] > 100 µM | [23] > 100 µM | [24] 64.9 µM | [25] > 100 µM | [26] > 100 µM | [27] > 100 µM | [28] > 100 µM | [57] > 100 µM | [29] > 10 µM | [30] > 100 µM | [58] > 100 µM | [31] > 100 µM | [32] > 100 µM | [33] > 100 µM | [34] > 100 µM | [35] > 100 µM | [36] > 100 µM | [38] > 100 µM | [39] > 100 µM | [40] > 100 µM | [41] 52.7 µM | [42] > 100 µM | [43] > 100 µM | [44] > 100 µM | [45] > 100 µM | [46] > 100 µM | [47] > 100 µM | [48] > 100 µM | [49] > 100 µM | [51] > 100 µM | [53] > 100 µM | [54] > 100 µM | [55] > 100 µM | [56] > 100 µM

O=C1NC(c2ccccc2)(c2ccccc2)C(=O)N1CCCCCCN1C(=O)NC(c2ccccc2)(c2ccccc2)C1=O
inactive: [1] 22.5 µM | [2] 53.8 µM | [3] 12.6 µM | [4] > 100 µM | [5] > 100 µM | [6] 4.83 µM | [7] > 100 µM | [8] 18.6 µM | [9] > 100 µM | [11] 69.3 µM | [12] 13.2 µM | [14] 4.52 µM | [15] > 100 µM | [16] 25.5 µM | [17] 11 µM | [18] 4.79 µM | [19] 19.9 µM | [20] > 100 µM | [21] > 100 µM | [22] 33.3 µM | [23] > 100 µM | [24] > 100 µM | [25] 74 µM | [27] 83.2 µM | [28] 46 µM | [57] 26.2 µM | [29] > 100 µM | [30] 21.2 µM | [58] 26.2 µM | [31] 25.9 µM | [32] 21.5 µM | [33] 57.7 µM | [34] 34.2 µM | [35] 15.7 µM | [36] 39.4 µM | [37] > 100 µM | [38] 62.5 µM | [39] 18.2 µM | [40] 52.8 µM | [41] 10.3 µM | [42] 45.8 µM | [43] 22.3 µM | [44] 27.7 µM | [45] > 100 µM | [46] 33.3 µM | [47] > 100 µM | [48] 25 µM | [49] 26.9 µM | [51] 58.1 µM | [52] 48.5 µM | [53] > 100 µM | [54] 24.8 µM | [55] 12.2 µM | [56] 11.9 µM
> 100 µM: [50]
